Experiment [1] relates to SK-Br3 breast cancer cell line. In words: Cancer cell growth inhibition, SK-Br3 (SRB). The conditions noted are these: Homo sapiens, SK-BR-3, 72 h, read-out: ID50 (nM) SK-Br3.
In experiment [2] the test system is A431 skin cancer cell line. The experiment can be described thus: Cancer cell growth inhibition, A431 (SRB). The conditions noted are these: Homo sapiens, A-431, 72 h, read-out: ID50 (nM) A431.

For the molecule `COc1cc2ncnc(Nc3ccc(F)c(Cl)c3F)c2cc1OC1CCN(C(=O)/C=C/C(=O)NO)CC1` [Example 88, (E)-4-(4-(4-(3-chloro-2,4-difluorophenylamino)-7-methoxyquinazolin-6-yloxy)piperidin-1-yl)-N-hydroxy-4-oxobut-2-enamide], the IC50 in experiment [1] is above 1000 nM; in experiment [2], 187 nM.

Turning to `COc1cc2ncnc(Nc3ccc(Cl)c(Cl)c3F)c2cc1OC1CCN(C(=O)/C=C\Cl)CC1` [Example 89, (Z)-3-chloro-1-(4-(4-(3,4-dichloro-2-fluorophenylamino)-7-methoxyquinazolin-6-yloxy)piperidin-1-yl)prop-2-en-1-one], the IC50 amounted to 85 nM in experiment [1] and 14 nM in experiment [2].

Turning to `COc1cc2ncnc(Nc3ccc(Cl)c(Cl)c3F)c2cc1OC1CCN(C(=O)/C=C/Cl)CC1` [Example 90, (E)-3-chloro-1-(4-(4-(3,4-dichloro-2-fluorophenylamino)-7-methoxyquinazolin-6-yloxy)piperidin-1-yl)prop-2-en-1-one], the IC50 was 13 nM in experiment [1] and 39 nM in experiment [2].

As to `C=C(NC(C)=O)C(=O)N1CCC(Oc2cc3c(Nc4ccc(Cl)c(Cl)c4F)ncnc3cc2OC)CC1` [Example 91, N-(3-(4-(4-(3,4-dichloro-2-fluorophenylamino)-7-methoxyquinazolin-6-yloxy)piperidin-1-yl)-3-oxoprop-1-en-2-yl)acetamide], the values for the IC50 in experiment [1] and in experiment [2] were 194 nM and 50 nM, respectively.

Take `COc1cc2ncnc(Nc3ccc(F)c(Cl)c3F)c2cc1O[C@H]1CCN(C(=O)/C=C/CN(C)C)C1` [Example 92, (E)-1-((3S)-3-(4-(3-chloro-2,4-difluorophenylamino)-7-methoxyquinazolin-6-yloxy)pyrrolidin-1-yl)-4-(dimethylamino)but-2-en-1-one]: the IC50 was found to be 8 nM in experiment [1] and 4 nM in experiment [2].

Regarding `CCN(CC)C/C=C/C(=O)N1CC[C@H](Oc2cc3c(Nc4ccc(F)c(Cl)c4F)ncnc3cc2OC)C1` [Example 93, (E)-1-((3S)-3-(4-(3-chloro-2,4-difluorophenylamino)-7-methoxyquinazolin-6-yloxy)pyrrolidin-1-yl)-4-(diethylamino)but-2-en-1-one], the results for the IC50 in experiment [1] and in experiment [2] were 40 nM and 28 nM, respectively.

With `COc1cc2ncnc(Nc3ccc(F)c(Cl)c3F)c2cc1O[C@H]1CCN(C(=O)/C=C/CN2CCOCC2)C1` [Example 94, (E)-1-((3S)-3-(4-(3-chloro-2,4-difluorophenylamino)-7-methoxyquinazolin-6-yloxy)pyrrolidin-1-yl)-4-morpholinobut-2-en-1-one], the IC50 in experiment [1] is 123 nM; in experiment [2] it was 85 nM.

On to `COc1cc2ncnc(Nc3ccc(F)c(Cl)c3F)c2cc1O[C@H]1CCN(C(=O)/C=C/CN2CCCC2)C1` [Example 95, (E)-1-((3S)-3-(4-(3-chloro-2,4-difluorophenylamino)-7-methoxyquinazolin-6-yloxy)pyrrolidin-1-yl)-4-(pyrrolidin-1-yl)but-2-en-1-one], for which the IC50 was 23 nM in experiment [1] and 8 nM in experiment [2].

As to `COc1cc2ncnc(Nc3cccc(Cl)c3F)c2cc1O[C@H]1CCN(C(=O)/C=C/CN(C)C)C1` [Example 96, (E)-1-((3S)-3-(4-(3-chloro-2-fluorophenylamino)-7-methoxyquinazolin-6-yloxy)pyrrolidin-1-yl)-4-(dimethylamino)but-2-en-1-one], the results for the IC50 in experiment [1] and in experiment [2] were 46 nM and 8 nM, respectively.

`CN(C)C/C=C/C(=O)N1CC[C@H](Oc2ccc3ncnc(Nc4ccc(F)c(Cl)c4F)c3c2)C1` [Example 97, (E)-1-((3S)-3-(4-(3-chloro-2,4-difluorophenylamino)quinazolin-6-yloxy)pyrrolidin-1-yl)-4-(dimethylamino)but-2-en-1-one]: the IC50 was found to be 94 nM in experiment [1] and 25 nM in experiment [2].

Turning to `COc1cc2ncnc(Nc3ccc(Cl)c(Cl)c3F)c2cc1OC1CCN(C(=O)/C=C/CN(C)C)CC1` [Example 99, (E)-1-(4-(4-(3,4-dichloro-2-fluorophenylamino)-7-methoxyquinazolin-6-yloxy)piperidin-1-yl)-4-(dimethylamino)but-2-en-1-one], the IC50 was found to be 39 nM in experiment [1] and 165 nM in experiment [2].

Regarding `COc1cc2ncnc(Nc3cccc(Cl)c3F)c2cc1OC1CCN(C(=O)/C=C/CN(C)C)CC1` [Example 100, (E)-1-(4-(4-(3-chloro-2-fluorophenylamino)-7-methoxyquinazolin-6-yloxy)piperidin-1-yl)-4-(dimethylamino)but-2-en-1-one], the IC50 in experiment [1] came out at 15 nM; in experiment [2], 76 nM.

On to `COc1cc2ncnc(Nc3ccc(F)c(Cl)c3F)c2cc1OC1CN(C(=O)/C=C/CN(C)C)C1` [Example 101, (E)-1-(3-(4-(3-chloro-2,4-difluorophenylamino)-7-methoxyquinazolin-6-yloxy)azetidin-1-yl)-4-(dimethylamino)but-2-en-1-one], for which the IC50 in experiment [1] was 11 nM; in experiment [2], 36 nM.

`COc1cc2ncnc(Nc3cccc(Cl)c3F)c2cc1OC1CN(C(=O)/C=C/CN(C)C)C1` [Example 102, (E)-1-(3-(4-(3-chloro-2-fluorophenylamino)-7-methoxyquinazolin-6-yloxy)azetidin-1-yl)-4-(dimethylamino)but-2-en-1-one]: the IC50 was determined as 8 nM in experiment [1] and 9 nM in experiment [2].

As for `COc1cc2ncnc(Nc3ccc(F)c(Cl)c3F)c2cc1OCCNC(=O)/C=C/CN(C)C` [Example 103, (E)-N-(2-(4-(3-chloro-2,4-difluorophenylamino)-7-methoxyquinazolin-6-yloxy)ethyl)-4-(dimethylamino)but-2-enamide], the IC50 was determined as 7 nM in experiment [1] and 18 nM in experiment [2].

For `C=C(CN1CCN(C)CC1)C(=O)N1CC(Oc2cc3c(Nc4ccc(F)c(Cl)c4F)ncnc3cc2OC)C1` [Example 106, 1-(3-(4-(3-chloro-2,4-difluorophenylamino)-7-methoxyquinazolin-6-yloxy)azetidin-1-yl)-2-((4-methylpiperazin-1-yl)methyl)prop-2-en-1-one], the IC50 in experiment [1] turned out to be 0.5 nM; in experiment [2], 1 nM.

For the molecule `C=C(CN1CCCCC1)C(=O)N1CC(Oc2cc3c(Nc4cccc(Cl)c4F)ncnc3cc2OC)C1` [Example 107, 1-(3-(4-(3-chloro-2-fluorophenylamino)-7-methoxyquinazolin-6-yloxy)azetidin-1-yl)-2-(piperidin-1-ylmethyl)prop-2-en-1-one], the IC50 is 0.7 nM in experiment [1] and 2.4 nM in experiment [2].

`C=C(CN1CCCCC1)C(=O)N1CC(Oc2cc3c(Nc4ccc(F)c(Cl)c4F)ncnc3cc2OC)C1` [Example 108, 1-(3-(4-(3-chloro-2,4-difluorophenylamino)-7-methoxyquinazolin-6-yloxy)azetidin-1-yl)-2-(piperidin-1-ylmethyl)prop-2-en-1-one]: the IC50 in experiment [1] was found to be 6 nM; in experiment [2], 9.1 nM.

Regarding `C=C(CN(C)C)C(=O)N1CCC(Oc2cc3c(Nc4ccc(F)c(Cl)c4F)ncnc3cc2OC)CC1` [Example 109, 1-(4-(4-(3-chloro-2,4-difluorophenylamino)-7-methoxyquinazolin-6-yloxy)piperidin-1-yl)-2-((dimethylamino)methyl)prop-2-en-1-one], the IC50 amounted to 3.5 nM in experiment [1] and 2.7 nM in experiment [2].

For the molecule `C=C(CN1CCOCC1)C(=O)N1CCC(Oc2cc3c(Nc4ccc(F)c(Cl)c4F)ncnc3cc2OC)CC1` [Example 110, 1-(4-(4-(3-chloro-2,4-difluorophenylamino)-7-methoxyquinazolin-6-yloxy)piperidin-1-yl)-2-(morpholinomethyl)prop-2-en-1-one], the IC50 came to 30 nM in experiment [1] and 10 nM in experiment [2].

As for `C=C(CN(C)C)C(=O)N1CCC(Oc2cc3c(Nc4ccc(Cl)c(Cl)c4F)ncnc3cc2OC)CC1` [Example 111, 1-(4-(4-(3,4-dichloro-2-fluorophenylamino)-7-methoxyquinazolin-6-yloxy)piperidin-1-yl)-2-((dimethylamino)methyl)prop-2-en-1-one], the results for the IC50 in experiment [1] and in experiment [2] were 6 nM and 4 nM, respectively.

Consider `COc1cc2ncnc(Nc3ccc(F)c(Cl)c3F)c2cc1OC1CN(C(=O)/C=C\CN(C)C)C1` [Example 112, (Z)-1-(3-(4-(3-chloro-2,4-difluorophenylamino)-7-methoxyquinazolin-6-yloxy)azetidin-1-yl)-4-(dimethylamino)but-2-en-1-one], for which the values for the IC50 in experiment [1] and in experiment [2] were 0.8 nM and 15 nM, respectively.

`COc1cc2ncnc(Nc3ccc(F)c(Cl)c3F)c2cc1OC1CCN(C(=O)/C=C\CN(C)C)CC1` [Example 113, (Z)-1-(4-(4-(3-chloro-2,4-difluorophenylamino)-7-methoxyquinazolin-6-yloxy)piperidin-1-yl)-4-(dimethylamino)but-2-en-1-one]: the results for the IC50 in experiment [1] and in experiment [2] were 17 nM and 6 nM, respectively.

Consider `C=C(CO)C(=O)N1CCC(Oc2cc3c(Nc4ccc(Cl)c(Cl)c4F)ncnc3cc2OC)CC1` [Example 114, 1-(4-(4-(3,4-dichloro-2-fluorophenylamino)-7-methoxyquinazolin-6-yloxy)piperidin-1-yl)-2-(hydroxymethyl)prop-2-en-1-one], for which the figures for the IC50 in experiment [1] and in experiment [2] were 274 nM and 44 nM, respectively.

Take `C=CC(=O)N1CC(Oc2cc3c(Nc4ccc(F)c(Cl)c4F)ncnc3cc2O)C1` [Example 115, 1-(3-(4-(3-chloro-2,4-difluorophenylamino)-7-hydroxyquinazolin-6-yloxy)azetidin-1-yl)prop-2-en-1-one]: the IC50 in experiment [1] was found to be 93 nM; in experiment [2], 381 nM.

For the molecule `C=CC(=O)N1CC(Oc2cc3c(Nc4ccc(F)c(Cl)c4F)ncnc3cc2OCCOC)C1` [Example 116, 1-(3-(4-(3-chloro-2,4-difluorophenylamino)-7-(2-methoxyethoxy)quinazolin-6-yloxy)azetidin-1-yl)prop-2-en-1-one], the IC50 in experiment [1] came to 327 nM; in experiment [2] it was 883 nM.

For `C=CC(=O)N1CCC(Oc2cc3c(Nc4ccc(F)c(Cl)c4F)ncnc3cc2OCCCN2CCOCC2)CC1` [Example 118, 1-(4-(4-(3-chloro-2,4-difluorophenylamino)-7-(3-morpholinopropoxy)quinazolin-6-yloxy)piperidin-1-yl)prop-2-en-1-one], the IC50 is 2 nM in experiment [1] and 4 nM in experiment [2].

These data come from US8188102B2, “Amide derivative for inhibiting the growth of cancer cells” (Hanmi Holdings Co., Ltd., priority 2007, dated 2012).
